Converted amounts (≈) assume the structure as drawn. Read-outs that look alike come from different tables or passages of the source.

For one series, the system named is E. faecalis. In words: In vitro antibacterial activity (MIC), two-fold agar-plate dilution method, E. faecalis. It counts as cell-based. The note with it: Enterococcus faecalis, HI-agar, 37° C., 20 hours, read-out: MIC (minimal inhibitory concentration). The method, then:
(§1) In vitro antibacterial activity were determined by the two-fold agar-plate dilution method as described below.
(§2) One loopful of an overnight culture of each test strain in Trypticase-soy broth (10^8 viable cells per ml) was streaked on heart infusion agar (HI-agar)containing graded concentrations of representative test compound, and the minimal inhibitory concentration (MIC) was expressed in terms of mg/ml after incubation at 37° C. for 20 hours.

Series [1] is described as follows: Urinary excretion, bile excretion and plasma level after oral administration to rats. It counts as in vivo, Male JCL SD rats. The note with it: rat, 20 mg/kg, fasted; for dose excreted at 24 h: 0-24 hours. As to the method: Male JCL SD atrain rats (age, 6 weeks) were used. Test compound was suspended in 0.5% methyl cellurose solution. The rats were atarved overnight before dosing with 20 mg /kg. Urine samples were collected at 0 to 6 and 6 to 24 hours after oral administration. Bile samples were collected at same interval as that of urine samples after a polyethylene cannula was inserted into the bile duct. Plasma samples were obtained by heart puncture at specified times after dosing. Concentrations of test compounds were measured by the disc-plate diffusion method using E. coli ATCC 39188 as test organism and nutrient agar (Difco) as the test medium. The diluents for standard curves were prepared with plasma from rat for determining the plasma levels, with 1/15 M phosphate buffer (pH7.0) for determining the urinary and biliary levels. The plate were incubated at 37° C. for 18 hours and the zone of inhibition were mesured and the recovery rate was calculated by comparing with the standard.

The subject of series [2] is Methicillin susceptible S. aureus. In words: In vitro antibacterial activity (MIC), two-fold agar-plate dilution method, methicillin susceptible S. aureus. The format is cell-based. The conditions noted are these: Staphylococcus aureus, HI-agar, 37° C., 20 hours, read-out: MIC (minimal inhibitory concentration). The method, then: as §1, §2
Setting [3] is: bile, read-out: Biliary recovery in 24 hours.
[4] abbreviates: urine, read-out: Urinary recovery in 24 hours.

Consider `Nc1nc(/C(=N/O)C(=O)N[C@@H]2C(=O)N3C(C(=O)O)=C(SCc4cn[nH]c4)CS[C@H]23)c(Cl)s1` [(1)], for which the results for the MIC (with E. faecalis; in series [2]) were 2900 mg/L (≈ 5620 µM) and 250 mg/L (≈ 485 µM), respectively. The dose excreted at 24 h in series [1] (setting [3]) amounted to 29%; in series [1] (setting [4]), 39.7%. Moreover, the AUC in series [1] (plasma) worked out at 52.9 µg·h/mL. This compound also had a Cmax in series [1] (plasma) of 21.8 µg/mL.
Turning to `Nc1nc(/C(=N/O)C(=O)N[C@@H]2C(=O)N3C(C(=O)O)=C(SCc4cccnc4)CS[C@H]23)c(Cl)s1` [(2)], the MIC stood at 2100 mg/L (≈ 3980 µM) with E. faecalis and 230 mg/L (≈ 436 µM) in series [2]. Moreover, the dose excreted at 24 h in series [1] (setting [3]) was found to be 19.6%; in series [1] (setting [4]) it was 17%.
Consider `Nc1nc(/C(=N/O)C(=O)N[C@@H]2C(=O)N3C(C(=O)O)=C(SCc4cnn[nH]4)CS[C@H]23)c(Cl)s1` [(3)], for which the MIC in the series with E. faecalis came out at 2100 mg/L (≈ 4060 µM); in series [2], 270 mg/L (≈ 522 µM). For the same compound, the dose excreted at 24 h in series [1] (setting [3]) amounted to 37.5%; in series [1] (setting [4]) it was 7.62%.

The record behind these values is patent publication US6159961A, “Cephem compounds” (Fujisawa Pharmaceutical Co., Ltd., priority 1995, dated 2000).
